Results published in US20230167088A1, “1-PYRAZINYLPYRAZOLYL-3-OXYALKYL ACIDS AND THEIR DERIVATIVES, AND THEIR USE FOR CONTROL OF UNDESIRED PLANT GROWTH” (BAYER AKTIENGESELLSCHAFT, priority 2020, published 2023).

What was measured:
ALOMY [1] = assay: Herbicidal post-emergence action 1a (greenhouse pots, visual rating); type: in vivo, Alopecurus myosuroides; conditions: rated visually about 3 weeks after treatment, 100% = plants have died, 0% = like control plants
Method in brief: (§1)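 Visual scoring versus untreated plants (100% = plants dead, 0% = as control) followed roughly 3 weeks in the greenhouse after treatment. Plants grown in sandy loam pots had been sprayed on green parts at the one-leaf stage, 2–3 weeks post-sowing, with aqueous WP/EC preparations containing 0.5% additive, 600 l/ha, at 320 and/or 80 g/ha.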

ECHCG [2] = assay: as above; type: in vivo, Echinochloa crus-galli; conditions: rated visually about 3 weeks after treatment, 100% = plants have died, 0% = like control plants
Method in brief: as §1

AMARE [3] = assay: as above; type: in vivo, Amaranthus retroflexus; conditions: dosage 320 g/ha, visual rating about 3 weeks after treatment
Method in brief: as §1

MATIN [4] = assay: as above; type: in vivo, Matricaria inodora; conditions: dosage 320 g/ha, visual rating about 3 weeks after treatment
Method: (§2) [table] a) Seeds of monocotyledonous and dicotyledonous weeds and crop plants are placed in sandy loam in plastic or organic plant pots, covered with soil and cultivated in a greenhouse under controlled growth conditions. 2 to 3 weeks after sowing, the test plants are treated at the one-leaf stage. The compounds of the invention, formulated in the form of wettable powders (WP) or as emulsion concentrates (EC), are then sprayed onto the green parts of the plants as aqueous suspension or emulsion with addition of 0.5% additive at a water application rate of 600 1/ha (converted). After the test plants have been kept in the greenhouse under optimum growth conditions for about 3 weeks, the activity of the preparations is rated visually in comparison to untreated controls. For example, 100% activity=the plants have died, 0% activity=like control plants. Tables A1 to A15 below show the effects of selected compounds of the general formula (I) according to Tables 1 and 2 on various harmful plants and an application rate corresponding to 320 g/ha and/or 80 g/ha, which were obtained by the experimental procedure mentioned above.

PHBPU = assay: as above; type: in vivo, Pharbitis purpurea; conditions: dosage 320 g/ha, visual rating about 3 weeks after treatment
Method in brief: as §1

STEME [5] = assay: as above; type: in vivo, Stellaria media; conditions: Dosage 320 g/ha; rated visually about 3 weeks after treatment; 100% = plants have died, 0% = like control plants
Method: as §2

VIOTR [6] = assay: as above; type: in vivo, Viola tricolor; conditions: visual rating about 3 weeks after treatment
Method in brief: as §1

VERPE [7] = assay: as above; type: in vivo, Veronica persica; conditions: visual rating about 3 weeks after treatment
Method in brief: as §1

POAAN [8] = assay: Herbicidal post-emergence action 1b (twin sowing, 1280 g/ha); type: in vivo, Poa annua; conditions: dosage 1280 g/ha, visual rating about 3 weeks after treatment
Method in brief: (§3)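 Visual % activity vs untreated controls, ~3 wk after treatment (100% = dead, 0% = like control). Plants: one mono- plus one dicot weed species per pot, sandy loam, greenhouse; sprayed at one-leaf stage (2–3 wk post-sowing). Aqueous WP/EC, 0.5% additive, 600 L/ha water.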

ECHCG [9] = assay: as above; type: in vivo, Echinochloa crus-galli; conditions: dosage 1280 g/ha, visual rating about 3 weeks after treatment
Method in brief: as §3

MATIN [10] = assay: as above; type: in vivo, Matricaria inodora; conditions: dosage 1280 g/ha, visual rating about 3 weeks after treatment
Method in brief: as §3

STEME [11] = assay: as above; type: in vivo, Stellaria media; conditions: dosage 1280 g/ha, visual rating about 3 weeks after treatment
Method in brief: as §3

DIGSA = assay: Herbicidal pre-emergence action 2a (greenhouse pots, visual scoring); type: in vivo, Digitaria sanguinalis; conditions: dosage 320 g/ha, visual scoring after about 3 weeks
Method in brief: (§4)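 Dose levels were 320 g/ha and/or 80 g/ha, delivered as an aqueous spray of wettable powder or emulsion concentrate plus 0.5% additive onto soil over sown seeds. Plants grew under good greenhouse conditions for about 3 weeks before visual percentage rating versus untreated pots.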

AMARE [12] = assay: as above; type: in vivo, Amaranthus retroflexus; conditions: dosage 320 g/ha, visual scoring after about 3 weeks vs untreated controls
Method in brief: as §4

MATIN [13] = assay: as above; type: in vivo, Matricaria inodora; conditions: dosage 320 g/ha, visual scoring after about 3 weeks vs untreated controls
Method in brief: as §4

VERPE [14] = assay: as above; type: in vivo, Veronica persica; conditions: dosage 320 g/ha, visual scoring after about 3 weeks vs untreated controls
Method in brief: as §4

POAAN [15] = assay: Herbicidal pre-emergence action 2b (doubly sown, 1280 g/ha); type: in vivo, Poa annua; conditions: doubly sown pots, dosage 1280 g/ha, visual scoring after about 3 weeks
Method in brief: (§5)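 Pre-emergence soil-surface spray (WP/EC formulation, 0.5% additive, 600 L/ha water) onto covered seeds in sandy loam, doubly sown per pot. Greenhouse ~3 wk; % effect scored visually against untreated pots.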

ECHCG [16] = assay: as above; type: in vivo, Echinochloa crus-galli; conditions: doubly sown pots, dosage 1280 g/ha, visual scoring after about 3 weeks
Method in brief: as §5

AMARE [17] = assay: as above; type: in vivo, Amaranthus retroflexus; conditions: doubly sown pots, dosage 1280 g/ha, visual scoring after about 3 weeks
Method in brief: as §5

MATIN [18] = assay: as above; type: in vivo, Matricaria inodora; conditions: doubly sown pots, dosage 1280 g/ha, visual scoring after about 3 weeks
Method in brief: as §5

STEME [19] = assay: as above; type: in vivo, Stellaria media; conditions: doubly sown pots, dosage 1280 g/ha, visual scoring after about 3 weeks
Method in brief: as §5

AVEFA [20] = assay: Herbicidal post-emergence action 1a (greenhouse pots, visual rating); type: in vivo, Avena fatua; conditions: rated visually about 3 weeks after treatment, 100% = plants have died, 0% = like control plants
Method in brief: as §1

LOLRI [21] = assay: as above; type: in vivo, Lolium rigidum; conditions: Dosage 320 g/ha; rated visually about 3 weeks after treatment; 100% = plants have died, 0% = like control plants
Method in brief: as §1

POLCO [22] = assay: as above; type: in vivo, Polygonum convolvulus; conditions: dosage 320 g/ha, visual rating about 3 weeks after treatment
Method in brief: as §1

HORMU = assay: as above; type: in vivo, Hordeum murinum; conditions: rated visually about 3 weeks after treatment, 100% = plants have died, 0% = like control plants
Method: as §2

ALOMY [23] = assay: Herbicidal pre-emergence action 2a (greenhouse pots, visual scoring); type: in vivo, Alopecurus myosuroides; conditions: dosage 320 g/ha, visual scoring after about 3 weeks
Method in brief: as §4

AVEFA [24] = assay: as above; type: in vivo, Avena fatua; conditions: dosage 320 g/ha, visual scoring after about 3 weeks
Method in brief: as §4

ECHCG [25] = assay: as above; type: in vivo, Echinochloa crus-galli; conditions: dosage 320 g/ha, visual scoring after about 3 weeks
Excerpt: [table] a) Seeds of monocotyledonous and dicotyledonous weed plants and crop plants are placed in plastic or organic plant pots and covered with soil. The compounds of the invention, formulated in the form of wettable powders (WP) or as emulsion concentrates (EC), are then applied onto the surface of the covering soil as aqueous suspension or emulsion with addition of 0.5% additive at a water application rate of 600 1/ha (converted). After the treatment, the pots are placed in a greenhouse and kept under good growth conditions for the trial plants. After about 3 weeks, the effect of the preparations is scored visually in comparison with untreated controls as percentages. For example, 100% activity=the plants have died, 0% activity=like control plants. Tables B1 to B15 below show the effects of selected compounds of the general formula (I) according to Tables 1 and 2 on various harmful plants and an application rate corresponding to 320 g/ha and/or 80 g/ha, which were obtained by the experimental procedure mentioned above.

LOLRI [26] = assay: as above; type: in vivo, Lolium rigidum; conditions: dosage 320 g/ha, visual scoring after about 3 weeks vs untreated controls
Method in brief: as §4

SETVI = assay: as above; type: in vivo, Setaria viridis; conditions: dosage 320 g/ha, visual scoring after about 3 weeks vs untreated controls
Method in brief: as §4

POLCO [27] = assay: as above; type: in vivo, Polygonum convolvulus; conditions: dosage 320 g/ha, visual scoring after about 3 weeks vs untreated controls
Method in brief: as §4

VIOTR [28] = assay: as above; type: in vivo, Viola tricolor; conditions: dosage 320 g/ha, visual scoring after about 3 weeks vs untreated controls
Method in brief: as §4

CCOC(=O)COc1nn(-c2cnccn2)c(-c2cccc(F)c2)c1Br [Example I-02]
100%: Pre-emergence action against AMARE in % (AMARE [12]) | Pre-emergence action against VERPE in % (VERPE [14]) | Pre-emergence action at 1280 g/ha against POAAN in % (POAAN [15]) | Pre-emergence action at 1280 g/ha against ECHCG in % (ECHCG [16]) | Pre-emergence action at 1280 g/ha against AMARE in % (AMARE [17]) | Pre-emergence action at 1280 g/ha against MATIN in % (MATIN [18]) | Pre-emergence action at 1280 g/ha against STEME in % (STEME [19])
80%: Post-emergence action against ALOMY in % (ALOMY [1]; Dosage 320 g/ha) | Post-emergence action against ECHCG in % (ECHCG [2]; Dosage 320 g/ha) | Post-emergence action against AMARE in % (AMARE [3]) | Post-emergence action against MATIN in % (MATIN [4]) | Post-emergence action against STEME in % (STEME [5]) | Post-emergence action against VIOTR in % (VIOTR [6]; dosage 320 g/ha) | Post-emergence action against VERPE in % (VERPE [7]; dosage 320 g/ha)
90%: Post-emergence action against PHBPU in % (PHBPU) | Post-emergence action at 1280 g/ha against POAAN in % (POAAN [8]) | Post-emergence action at 1280 g/ha against ECHCG in % (ECHCG [9]) | Post-emergence action at 1280 g/ha against MATIN in % (MATIN [10]) | Post-emergence action at 1280 g/ha against STEME in % (STEME [11]) | Pre-emergence action against DIGSA in % (DIGSA) | Pre-emergence action against MATIN in % (MATIN [13])

COC(=O)COc1nn(-c2cnccn2)c(-c2ccnc(F)c2)c1Br [Example I-09]
100%: Post-emergence action against POLCO in % (POLCO [22]) | Pre-emergence action against DIGSA in % (DIGSA) | Pre-emergence action against ECHCG in % (ECHCG [25]) | Pre-emergence action against AMARE in % (AMARE [12]) | Pre-emergence action against POLCO in % (POLCO [27]) | Pre-emergence action at 1280 g/ha against POAAN in % (POAAN [15]) | Pre-emergence action at 1280 g/ha against ECHCG in % (ECHCG [16]) | Pre-emergence action at 1280 g/ha against MATIN in % (MATIN [18]) | Pre-emergence action at 1280 g/ha against STEME in % (STEME [19])
90%: Post-emergence action against ALOMY in % (ALOMY [1]; Dosage 320 g/ha) | Post-emergence action against AVEFA in % (AVEFA [20]; Dosage 80 g/ha) | Post-emergence action against AVEFA in % (AVEFA [20]; Dosage 320 g/ha) | Post-emergence action against LOLRI in % (LOLRI [21]) | Post-emergence action against VIOTR in % (VIOTR [6]; dosage 80 g/ha) | Post-emergence action against VIOTR in % (VIOTR [6]; dosage 320 g/ha) | Post-emergence action against VERPE in % (VERPE [7]; dosage 80 g/ha) | Post-emergence action against HORMU in % (HORMU; Dosage 320 g/ha) | Pre-emergence action against ALOMY in % (ALOMY [23]) | Pre-emergence action against AVEFA in % (AVEFA [24]) | Pre-emergence action against LOLRI in % (LOLRI [26]) | Pre-emergence action against SETVI in % (SETVI) | Pre-emergence action against VIOTR in % (VIOTR [28]) | Pre-emergence action at 1280 g/ha against AMARE in % (AMARE [17])
80%: Post-emergence action against ALOMY in % (ALOMY [1]; Dosage 80 g/ha) | Post-emergence action against ECHCG in % (ECHCG [2]; Dosage 80 g/ha) | Post-emergence action against ECHCG in % (ECHCG [2]; Dosage 320 g/ha) | Post-emergence action against STEME in % (STEME [5]) | Post-emergence action against HORMU in % (HORMU; Dosage 80 g/ha)
